Experimental data reported in article PMC5898815 (Journal of medicinal chemistry, 2018).
Where two headings read alike, the source gives them in different places.

Columns and labels:
[1] = PAMPA permeability; assay type: in vitro ADME
[2] = molecular target: T1, DCN1 (Homo sapiens, UniProt Q96GG9); assay type: cell-based; settings: HCC95 cells, 10 μM, 1 h, 53 °C
Target sequence in this assay (Q96GG9 whole entry): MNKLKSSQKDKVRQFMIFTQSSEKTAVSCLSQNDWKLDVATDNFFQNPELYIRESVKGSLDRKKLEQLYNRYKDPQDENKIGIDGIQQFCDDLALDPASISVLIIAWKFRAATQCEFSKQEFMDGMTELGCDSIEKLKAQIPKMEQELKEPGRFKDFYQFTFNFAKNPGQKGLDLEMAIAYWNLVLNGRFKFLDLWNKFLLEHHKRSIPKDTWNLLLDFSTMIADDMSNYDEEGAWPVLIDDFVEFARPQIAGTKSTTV

[3] = molecular target: RBX1 (Homo sapiens, UniProt P62877); experiment: DCN1-independent neddylation of cullins catalyzed solely by RBX1; assay type: biochemical
Sequence of RBX1 (P62877 whole entry, species assumed, canonical isoform): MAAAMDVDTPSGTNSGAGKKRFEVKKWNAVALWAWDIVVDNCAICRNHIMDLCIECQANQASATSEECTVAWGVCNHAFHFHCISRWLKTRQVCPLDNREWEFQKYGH
Sequence of RBX1 (Q13617 whole entry partner, species assumed, canonical isoform): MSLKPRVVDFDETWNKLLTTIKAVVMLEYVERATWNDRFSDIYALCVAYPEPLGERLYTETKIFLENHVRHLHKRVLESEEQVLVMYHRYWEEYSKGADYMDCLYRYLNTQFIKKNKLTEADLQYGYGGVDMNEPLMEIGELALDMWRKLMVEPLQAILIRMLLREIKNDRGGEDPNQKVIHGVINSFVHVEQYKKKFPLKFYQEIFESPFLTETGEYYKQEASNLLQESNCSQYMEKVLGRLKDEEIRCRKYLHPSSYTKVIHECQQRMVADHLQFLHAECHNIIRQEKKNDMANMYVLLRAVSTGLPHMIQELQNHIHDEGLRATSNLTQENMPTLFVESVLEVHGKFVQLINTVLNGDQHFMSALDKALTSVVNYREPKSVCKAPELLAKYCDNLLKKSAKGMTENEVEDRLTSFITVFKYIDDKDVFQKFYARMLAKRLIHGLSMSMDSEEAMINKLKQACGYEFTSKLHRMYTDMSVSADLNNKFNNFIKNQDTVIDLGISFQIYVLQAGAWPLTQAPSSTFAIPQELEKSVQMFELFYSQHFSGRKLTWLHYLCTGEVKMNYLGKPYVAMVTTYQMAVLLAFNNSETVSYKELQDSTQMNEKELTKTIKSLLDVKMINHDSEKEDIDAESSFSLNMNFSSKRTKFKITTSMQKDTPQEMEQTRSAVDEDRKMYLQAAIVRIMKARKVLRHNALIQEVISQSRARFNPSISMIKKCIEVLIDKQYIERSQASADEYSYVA

[4] = tested on: DCN1 and DCN2; experiment: Pulse-chase isoform selectivity, NEDD8 transfer from UBE2M to CUL2; assay type: biochemical, human; settings: pulse-chase assay against all five DCN family members
[5] = molecular target: UBE2M (N-acetylated) (Homo sapiens) (UniProt P61081); settings: cited from earlier work
Sequence of UBE2M (N-acetylated) (Homo sapiens) (P61081 whole entry): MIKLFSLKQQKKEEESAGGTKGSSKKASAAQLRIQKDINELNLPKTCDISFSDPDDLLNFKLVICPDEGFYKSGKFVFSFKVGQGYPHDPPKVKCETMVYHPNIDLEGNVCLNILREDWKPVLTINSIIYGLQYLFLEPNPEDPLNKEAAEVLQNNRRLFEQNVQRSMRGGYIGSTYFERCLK

[6] = tested on: cullin neddylation in HCC95 cells; experiment: Western blot for inhibition of cellular cullin neddylation in HCC95 cells; assay type: cell-based; settings: for Inhibition of cullin neddylation in HCC95 cells / Steady-state level of cullin neddylation for CUL1 and CUL3 / Steady-state level of cullin neddylation for CUL2, CUL4A and CUL5: 20 μM; for Inhibition of cullin neddylation in HCC95 cells: dosing at T = 0 and 24 hr, 48 hours; for Steady-state level of cullin neddylation for CUL1 and CUL3 / Steady-state level of cullin neddylation for CUL2, CUL4A and CUL5: HCC95 cells; for Accumulation of well-recognized proteasomal targets (immunoblot): acute pharmacological inhibition, Supplementary Figure 6
[7] = molecular target: T1, DCN1; assay type: biochemical
Target sequence in this assay (Q96GG9 62-259 limits assumed): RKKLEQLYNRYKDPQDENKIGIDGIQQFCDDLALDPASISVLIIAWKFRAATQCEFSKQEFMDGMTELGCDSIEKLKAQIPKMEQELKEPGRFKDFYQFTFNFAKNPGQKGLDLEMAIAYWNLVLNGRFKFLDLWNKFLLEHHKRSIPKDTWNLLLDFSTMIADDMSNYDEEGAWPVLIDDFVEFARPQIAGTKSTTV

[8] = tested on: DCN3-5; experiment: Pulse-chase isoform selectivity, NEDD8 transfer from UBE2M to CUL2; assay type: biochemical, human; settings: at 50 μM
[9] = molecular target: T2, NEDD8 E1 enzyme (Homo sapiens, UniProt Q13564+Q8TBC4); experiment: Inhibition of the NEDD8 E1 activating enzyme; assay type: biochemical; settings: concentrations as high as 50 μM
T2 sequence (Q8TBC4 1-463): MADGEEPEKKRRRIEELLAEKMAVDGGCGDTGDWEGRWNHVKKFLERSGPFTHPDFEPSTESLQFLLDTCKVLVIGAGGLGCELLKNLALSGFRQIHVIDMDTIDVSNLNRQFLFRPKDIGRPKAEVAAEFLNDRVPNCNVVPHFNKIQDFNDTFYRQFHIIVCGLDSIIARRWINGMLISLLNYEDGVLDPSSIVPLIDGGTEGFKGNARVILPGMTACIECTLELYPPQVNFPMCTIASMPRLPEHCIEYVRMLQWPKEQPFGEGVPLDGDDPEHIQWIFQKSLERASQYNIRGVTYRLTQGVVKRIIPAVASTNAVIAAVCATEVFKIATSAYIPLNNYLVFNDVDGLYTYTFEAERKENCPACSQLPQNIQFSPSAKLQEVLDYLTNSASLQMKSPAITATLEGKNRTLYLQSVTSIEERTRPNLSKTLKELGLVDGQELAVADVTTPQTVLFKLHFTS
T2 sequence (Q13564 1-534): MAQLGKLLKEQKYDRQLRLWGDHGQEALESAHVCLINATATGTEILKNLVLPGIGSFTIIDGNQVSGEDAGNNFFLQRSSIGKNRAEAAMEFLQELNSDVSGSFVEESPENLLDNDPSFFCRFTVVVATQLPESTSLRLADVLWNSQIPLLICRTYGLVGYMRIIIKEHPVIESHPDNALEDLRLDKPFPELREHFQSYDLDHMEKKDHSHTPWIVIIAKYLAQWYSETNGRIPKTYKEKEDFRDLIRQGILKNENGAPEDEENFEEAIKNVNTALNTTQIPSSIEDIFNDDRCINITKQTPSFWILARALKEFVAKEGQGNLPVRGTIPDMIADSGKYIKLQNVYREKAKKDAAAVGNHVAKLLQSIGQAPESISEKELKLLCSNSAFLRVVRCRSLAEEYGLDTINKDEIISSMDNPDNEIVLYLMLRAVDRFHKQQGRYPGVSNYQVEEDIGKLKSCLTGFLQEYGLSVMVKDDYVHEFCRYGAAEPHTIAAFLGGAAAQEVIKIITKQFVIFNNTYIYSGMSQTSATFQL

[10] = tested on: HCC95 cells; experiment: In vitro proliferation assay, HCC95 cells; assay type: cell-based
[11] = tested on: total cellular ubiquitination; settings: cited from earlier work
[12] = molecular target: DCN1-UBE2M protein-protein interaction (Homo sapiens, UniProt Q96GG9); assay type: binding
Sequence of DCN1-UBE2M protein-protein interaction (Q96GG9 62-259 limits assumed): as the sequence (Q96GG9 62-259 limits assumed) above

Sequence of DCN1 (from UniProt Q96GG9) (Q96GG9 whole entry): as the sequence (Q96GG9 whole entry) above

Molecule O=C(Nc1cccc(C(F)(F)F)c1)NC1CCN(Cc2ccc(F)cc2)CC1 [Compound 21] has a Pampa [1] greater than 0.0022 cm/s.
In the case of CCCN1CCC(N(CCC)C(=O)Nc2cccc(C(F)(F)F)c2)CC1 [Compound 35], the Pampa [1] is reported as 1600 ±170 ×10^−6 cm/s.
With CCCCN1CCC(N(Cc2ccccc2)C(=O)Nc2cccnc2)CC1 [NAcM-NEG, reference compound] the “Thermal stability of the DCN1 protein (CETSA)” value (“Thermal stability” below) [2] was “largely degraded”.
For CCCCS(=O)(=O)N1CCC(N(Cc2ccccc2)C(=O)Nc2cccc(C(F)(F)F)c2)CC1 [Compound 62], the Pampa [1] was less than 1e-06 cm/s.
For CCCN1CCC(N(CC2CCCCC2)C(=O)Nc2cccc(C(F)(F)F)c2)CC1 [Compound 40], the Pampa [1] was greater than 0.0022 cm/s.
For O=C(Nc1cccc(C(F)(F)F)c1)NC1CCN(Cc2cccc(Cl)c2)CC1 [Compound 17], the Pampa [1] was 1700 ± 1 ×10^−6 cm/s.
In the case of CC(C)(C)N1CCC(N(Cc2ccc3c(c2)OCO3)C(=O)Nc2cccc(C(F)(F)F)c2)CC1 [Compound 73], the “Inhibition of DCN1-independent neddylation of cullins catalyzed solely by RBX1” value (“Inhibition … by RBX1” for short) [3] is reported as “do not inhibit”.
For Cn1nccc1-c1cccc(NC(=O)NC2CCN(Cc3ccccc3)CC2)c1 [Compound 32], the Pampa [1] was greater than 0.0022 cm/s.
For CCCCCN1CCC(N(Cc2ccccc2)C(=O)Nc2cccc(C(F)(F)F)c2)CC1 [Compound 50], the Pampa [1] was 1400 ± 540 ×10^−6 cm/s.
O=C(Nc1cccc(C(F)(F)F)c1)N(Cc1ccccc1)C1CCNCC1 [Compound 47] showed a Pampa [1] greater than 0.0022 cm/s.
Molecule O=C(Nc1cccc(C(F)(F)F)c1)N(Cc1ccccc1)C1CCN(Cc2cccnc2)CC1 [Compound 67] has a Pampa ([1]; mean ± SD) greater than 0.0022 cm/s.
For CCCN1CCC(N(Cc2ccccc2)C(=O)Nc2cccc(C(F)(F)F)c2)CC1 [Compound 42], the “Selectivity for inhibiting neddylation activity of DCN1 and DCN2 over DCN3-5” value [4] was “selective and approximately equipotent inhibition” and the Pampa [1] was 1800 ± 1 ×10^−6 cm/s.
In the case of DCN1 (from UniProt Q96GG9), the Kd [5] is listed as 1000 nM.
For CCCN1CCC(N(CCOC)C(=O)Nc2cccc(C(F)(F)F)c2)CC1 [Compound 39], the Pampa [1] was 1600 ± 1 ×10^−6 cm/s.
For Cc1ccccc1CN1CCC(NC(=O)Nc2cccc(C(F)(F)F)c2)CC1 [Compound 13], the Pampa [1] was 1200 ± 35 ×10^−6 cm/s.
With O=C(Nc1cccc(C(F)(F)F)c1)NC1CCN(Cc2ccc(Cl)cc2)CC1 [Compound 20] the Pampa [1] was 1300 ± 43 ×10^−6 cm/s.
In the case of CCCN1CCC(N(Cc2cc(F)cc(C(F)(F)F)c2)C(=O)Nc2cccc(C(F)(F)F)c2)CC1 [Compound 46], the Pampa [1] is reported as greater than 0.0022 cm/s and the “Inhibition … by RBX1” value [3] is reported as “do not inhibit”.
Work on Cc1cccc(CN2CCC(NC(=O)Nc3cccc(C(F)(F)F)c3)CC2)c1 [Compound 16] yielded a Pampa [1] greater than 0.0022 cm/s.
Work on O=C(Nc1cccc(C(F)(F)F)c1)N(Cc1ccccc1)C1CCN(Cc2ccc(F)cc2)CC1 [Compound 68] yielded a Pampa ([1]; mean ± SD) greater than 0.0022 cm/s.
With CCCC(C)N1CCC(N(Cc2ccccc2)C(=O)Nc2cccc(C(F)(F)F)c2)CC1 (stereo not shown) [Compound 52, 1-benzyl-1-(1-(pentan-2-yl)piperidin-4-yl)-3-(3-(trifluoromethyl)phenyl)urea] the “Inhibition of cullin neddylation in HCC95 cells” value [6] was “inhibited neddylation”, the “Steady-state level of cullin neddylation for CUL1 and CUL3” value [6] was “selectively decreases” and the “Steady-state level of cullin neddylation for CUL2, CUL4A and CUL5” value [6] was “relatively unaffected”. The “Accumulation of well-recognized proteasomal targets (immunoblot)” value [6] was “failed to cause gross accumulation”, the Pampa [1] was 1400 ±39 ×10^−6 cm/s and the “Thermal stability” value [2] was “clearly enhanced”. For the same molecule, the “Inhibition … by RBX1” value [3] was “do not inhibit”, the “Inhibition of DCN1 stimulated NEDD8 transfer from UBE2F to the cullins” value [7] was “inhibit” and the “Inhibition of neddylation activity of DCN3-5” value [8] was “slight activity”. For the same molecule, the “Inhibition of the E1 activating enzyme for NEDD8” value [9] was “do not inhibit” and the “Growth inhibition of monolayer cultures at 20 μM” value [10] was “only minimally growth inhibitory”.
In the case of NS(=O)(=O)OC[C@@H]1C[C@@H](n2ccc3c(N[C@H]4CCc5ccccc54)ncnc32)C[C@@H]1O [Pevonedistat, reference compound], the “Inhibition of cullin neddylation in cells by positive control” value ([6]; MLN4924 1 μM, single dose, 48 hours (Figure 7)) is given as “completely inhibits all cullin neddylation” and the “Reduction of total cellular ubiquitination” value [11] is given as 10-20%.
With O=C(Nc1ccccc1)NC1CCN(Cc2ccccc2)CC1 [Compound 23] the Pampa [1] was 1400 ± 250 ×10^−6 cm/s.
Work on O=C(Nc1cccc(C(F)(F)F)c1)N(Cc1ccccc1)C1CCN(CC2CCCCC2)CC1 [Compound 58] yielded a Pampa [1] of less than 1e-06 cm/s.
For O=C(Nc1cccc(C(F)(F)F)c1)NC1CCN(Cc2ccccc2F)CC1 [Compound 15], the Pampa [1] was 1500 ± 1 ×10^−6 cm/s.
For CCCN1CCC(N(CCC(C)C)C(=O)Nc2cccc(C(F)(F)F)c2)CC1 [Compound 38], the Pampa [1] was 1500 ±5.4 ×10^−6 cm/s.
With CCCN1CCC(N(Cc2ccco2)C(=O)Nc2cccc(C(F)(F)F)c2)CC1 [Compound 41] the Pampa [1] was greater than 0.0022 cm/s.
With CCCN1CCC(N(Cc2cccnc2)C(=O)Nc2cccc(C(F)(F)F)c2)CC1 [Compound 43] the Pampa [1] was 1300 ±79 ×10^−6 cm/s.
With Cc1cccc(NC(=O)NC2CCN(Cc3ccccc3)CC2)c1 [Compound 26] the “Potency in the TR-FRET assay (in words)” value [12] was “practically inactive”.
CCCN1CCC(N(Cc2ccc3c(c2)OCO3)C(=O)Nc2cccc(C(F)(F)F)c2)CC1 [Compound 45, 1-(benzo[d][1,3]dioxol-5-ylmethyl)-1-(1-propylpiperidin-4-yl)-3-(3-(trifluoromethyl)phenyl)urea] showed a Pampa [1] greater than 0.0022 cm/s.
In the case of CCCCN(C(=O)Nc1cccc(C(F)(F)F)c1)C1CCN(CCC)CC1 [Compound 36], the Pampa [1] is reported as greater than 0.0022 cm/s.
With CCCN1CCC(N(CC(C)C)C(=O)Nc2cccc(C(F)(F)F)c2)CC1 [Compound 37] the Pampa [1] was 1900±200 ×10^−6 cm/s.
With Cc1ccc(NC(=O)NC2CCN(Cc3ccccc3)CC2)cc1Cl [Compound 25] the Pampa [1] was greater than 0.0022 cm/s.
With CCCCN1CCC(N(Cc2ccccc2)C(=O)Nc2cccc(C(F)(F)F)c2)CC1 [Compound 49, 1-benzyl-1-(1-butylpiperidin-4-yl)-3-(3-(trifluoromethyl)phenyl)urea] the “Inhibition of cullin neddylation in HCC95 cells” value [6] was “inhibited neddylation”, the “Steady-state level of cullin neddylation for CUL1 and CUL3” value [6] was “selectively decreases” and the “Steady-state level of cullin neddylation for CUL2, CUL4A and CUL5” value [6] was “relatively unaffected”. For the same molecule, the “Accumulation of well-recognized proteasomal targets (immunoblot)” value [6] was “failed to cause gross accumulation”, the Pampa [1] was greater than 0.0022 cm/s and the “Thermal stability” value [2] was “clearly enhanced”. For the same molecule, the “Inhibition … by RBX1” value [3] was “do not inhibit”, the “Inhibition of DCN1 stimulated NEDD8 transfer from UBE2F to the cullins” value [7] was “inhibit” and the “Inhibition of the E1 activating enzyme for NEDD8” value [9] was “do not inhibit”. The “Growth inhibition of monolayer cultures at 20 μM” value [10] was “only minimally growth inhibitory”.
For Cc1ccc(CN2CCC(NC(=O)Nc3cccc(C(F)(F)F)c3)CC2)cc1 [Compound 19], the Pampa [1] was greater than 0.0022 cm/s.
With O=C(Nc1cccc(C(F)(F)F)c1)NC1CCN(Cc2cccc(F)c2)CC1 [Compound 18] the Pampa [1] was greater than 0.0022 cm/s.
With CC(=O)O[C@H]1CN(Cc2ccccc2)CC[C@@H]1NC(=O)Nc1cccc(C(F)(F)F)c1 [Compound 34, (3S,4S)-1-benzyl-4-(3-(3-(trifluoromethyl)phenyl)ureido)piperidin-3-yl acetate] the “Potency in the TR-FRET assay (in words)” value [12] was “did not possess improved potency compared to our initial HTS hit 1”.
For O=C(Nc1cccc(C(F)(F)F)c1)N(Cc1ccccc1)C1CCN(Cc2ccc3c(c2)OCO3)CC1 [Compound 70], the Pampa ([1]; mean ± SD) was greater than 0.0022 cm/s.
In the case of CCCS(=O)(=O)N1CCC(N(Cc2ccccc2)C(=O)Nc2cccc(C(F)(F)F)c2)CC1 [Compound 61], the Pampa [1] is reported as less than 1e-06 cm/s.
With O=C(Nc1cccc(C(F)(F)F)c1)N(Cc1ccccc1)C1CCN(Cc2ccc3c(c2)OCCO3)CC1 [Compound 71] the Pampa ([1]; mean ± SD) was greater than 0.0022 cm/s.
